According to PMC11546692 (International Journal of Molecular Sciences, 2024):

Assays:
MiaPaCa-2 cells [1] = conditions: MiaPaCa-2, 48 h, MTT
PANC-1 cells [2] = conditions: PANC-1, 48 h, MTT
TB33117 cells = conditions: TB33117, 48 h, MTT
Skp2 = Skp2 immunohistochemical staining of xenografted tumors; assay type: in vivo, Scid mice
[3] = test system: pancreatic cancer (PC) cells; assay: MTT proliferation of human and murine pancreatic cancer cells (overall statements, combinations); assay type: cell-based; conditions: MiaPaCa-2, PANC-1, TB33117, KPCWT942
[4] = test system: MiaPaCa-2 human pancreatic cancer cells xenograft; assay: Subcutaneous MiaPaCa-2 xenograft tumor growth in Scid mice; assay type: in vivo
[5] = test system: normal pancreatic epithelial cell line (HPDE); assay type: cell-based
[6] = in vivo
MiaPaCa-2 cells [7] = assay: Cell death by propidium iodide flow cytometry; assay type: cell-based, human; conditions: MiaPaCa-2, 0.05 μM, 48 h
Method: (§1) ATO inhibited PC cell growth by stimulation of apoptosis. The effects of PhAs-LHP on cell cycle and cell death were determined by flow cytometry analysis. In MiaPaCa-2 cells, after 48 h treatment, ATO induced about 15% cell death at 0.5 μM while PhAs-LHP (0.05 μM) caused 24% cell death at ten times lower concentrations than ATO (Figure 4A). Likewise, after 24 h treatment, ATO (2 μM) and PhAs-LHP (0.2 μM) induced cell cycle arrest at the G2/M phase in PANC-1 cells (Figure 4B).
Figure 4 PhAs-LHP induced cell death and cell cycle arrest more potently than ATO. MiaPaCa-2 cells were treated with ATO (0.5 μM) or PhAs-LHP (0.05 μM) for 48 h (A). PANC-1 cells were treated with ATO (2 μM) or PhAs-LHP (0.2 μM) for 24 h (B). Both MiaPaCa-2 and PANC-1 cells were then stained with propidium iodide (PI) and subjected to flow cytometry analysis. Numbers indicate the percent of PI-negative cells of a total of 10,000 cells analyzed per condition (A). […]
Cell death and cell cycle were assayed using propidium iodide (PI) and flow cytometry. […] Samples were processed with the FACSymphony A3 flow cytometer (BD Biosciences), and the acquired data were analyzed with the FlowJo software (BD Biosciences, San Jose, CA, USA).

PANC-1 cells [8] = assay: Cell cycle by propidium iodide flow cytometry; assay type: cell-based, human; conditions: PANC-1, 0.2 μM, 24 h
Method: as §1
Figure 4 PhAs-LHP induced cell death and cell cycle arrest more potently than ATO. MiaPaCa-2 cells were treated with ATO (0.5 μM) or PhAs-LHP (0.05 μM) for 48 h (A). PANC-1 cells were treated with ATO (2 μM) or PhAs-LHP (0.2 μM) for 24 h (B). Both MiaPaCa-2 and PANC-1 cells were then stained with propidium iodide (PI) and subjected to flow cytometry analysis. Numbers indicate the percent of PI-negative cells of a total of 10,000 cells analyzed per condition (A). TEXT PRINTED IN THE PICTURE: (A) ATO: % PI Negative 85.4 (0.5 μM) | (A) PhAs-LHP: % PI Negative 75.9 (0.05 μM) | (B) ATO: %G1 28.9 (2 μM); %S 16.7 (2 μM); %G2 48.9 (2 μM) | (B) PhAs-LHP: %G1 39.3 (0.2 μM); %S 19.8 (0.2 μM); %G2 38.6 (0.2 μM)
Cell death and cell cycle were assayed using propidium iodide (PI) and flow cytometry. Cells were treated with ATO or PhAs-LHP with the concentrations indicated in the text for 48 h for measuring cell death or 24 h for determining cell cycle arrest. All floating and adhering cells were then trypsinized and washed two times with cold phosphate-buffered saline (PBS). For cell death assays, cells were harvested and resuspended in PBS containing 1 μg/mL PI. For cell cycle analysis, cells were harvested and resuspended in PBS containing 0.1% Triton X-100, 50 μg/mL PI, and 10 μg/mL RNaseA (Thermo Scientific, Melbourne, Australia) and then incubated at 37 °C for 15 min. Samples were processed with the FACSymphony A3 flow cytometer (BD Biosciences), and the acquired data were analyzed with the FlowJo software (BD Biosciences, San Jose, CA, USA).

[9] = mouse, in vivo
[10] = read-out: IC50 inhibition of PC cell proliferation

CAYHRLRRC [LHP, reference compound]
effect on cell proliferation (MiaPaCa-2 cells [1]): did not affect the proliferation | effect on cell proliferation (PANC-1 cells [2]): did not affect the proliferation | effect on cell proliferation (TB33117 cells): did not affect the proliferation

Nc1ccn([C@@H]2O[C@H](CO)[C@@H](O)C2(F)F)c(=O)n1 [Gem, gemcitabine, reference compound]
levels of Skp2 in tumors (Skp2; 50 mg/kg i.p., vs non-treatment control, IHC): reduced | effect of pre-treatment on inhibition of PC cell growth by ATO ([3]; 24 h pre-incubation with Gem, then 48 h ATO): enhanced the inhibitory effects of ATO | PC growth (tumor volume, tumor weight) ([4]; 50 mg/kg i.p. every 4 days, alone, vs control): significantly decreased PC growth

CC(=O)N[C@H]1CS[As](c2ccccc2)SC[C@@H](C(N)=O)NC(=O)[C@H](CCCNC(=N)N)NC(=O)[C@H](CCCNC(=N)N)NC(=O)[C@H](CC(C)C)NC(=O)[C@H](CCCNC(=N)N)NC(=O)[C@H](Cc2c[nH]cn2)NC(=O)[C@H](Cc2ccc(O)cc2)NC(=O)[C@H](C)NC1=O (some centres unmarked) [PhAs-LHP]
IC50 (MiaPaCa-2 cells [1]; [10]): 120 ± 100 nM | levels of Skp2 in tumors, combination with gemcitabine (Skp2; mouse, in vivo): did not further reduce the expression of Skp2 | levels of Skp2 in tumors (Skp2; mouse, in vivo, ip): reduced | reduction of proliferation of HPDE [5]: 10% | further reduction in tumor volumes and weight on top of Gem ([4]; mouse, in vivo): further decreased tumor volumes | relative tumor growth (Day 7 volume = 100%) ([4]; mouse, in vivo): significantly slower than of Gem plus PAO | pancreatic tumor growth (tumor volume, tumor weight) ([4]; mouse, in vivo, ip): significantly suppressed pancreatic tumor growth | toxicity (mouse body weight) [6]: No toxicity was observed | IC50 (PANC-1 cells [2]; [10]): 210 ± 30 nM | cell death (MiaPaCa-2 cells [7]): 24% | % PI Negative (MiaPaCa-2 cells [7]; of 10,000 cells): 75.9% | %G1 (PANC-1 cells [8]): 39.3% | %G2 (PANC-1 cells [8]): 38.6% | %S (PANC-1 cells [8]): 19.8% | arsenic (As) in brain, heart, liver and kidney [9]: not detected | IC50 (TB33117 cells; [10]): 200 ± 50 nM

Cc1nc(Nc2[nH]nc3c2CN(C(=O)N[C@H](CN(C)C)c2ccccc2)C3(C)C)c2sccc2n1 [PF-3758309]
effect of pre-treatment on inhibition of PC cell growth by ATO ([3]; 24 h pre-incubation with PF-3758309, then 48 h ATO): enhanced the inhibitory effects of ATO
